From ChEMBL document CHEMBL1201862, “PubChem BioAssay data set” (2004)
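Test compounds were applied to cells in 96-well plates for 48 hours at 5 doses. Here, GI50 denotes the concentration required for 50% inhibition of growth.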 Active and inactive are the calls of the source. Cut-off read from the data, not from the text of the source: active = GI50 up to about 1.1 µM and inactive = higher.

Assays:
Test in all cases: DTP human tumour cell line panel, 48 h
ACHN = system: ACHN
UACC-257 = system: UACC-257
NCI-H226 = system: NCI-H226
MDA-MB-231 = system: MDA-MB-231
MDA-MB-435 = system: MDA-MB-435
MDA-N = system: MDA-N
SW-620 = system: SW-620
NCI-H460 = system: NCI-H460
Hs-578T = system: Hs-578T
LOX IMVI = system: LOX IMVI
UACC-62 = system: UACC-62
M14 = system: M14
SF-268 = system: SF-268
MOLT-4 = system: MOLT-4
NCI/ADR-RES = system: NCI/ADR-RES
SF-539 = system: SF-539
DU-145 = system: DU-145
OVCAR-4 = system: OVCAR-4
U-251 = system: U-251
HL-60 = system: HL-60
A549 = system: A549
RXF 393 = system: RXF 393
BT-549 = system: BT-549
TK-10 = system: TK-10
OVCAR-5 = system: OVCAR-5
PC-3 = system: PC-3
OVCAR-8 = system: OVCAR-8
NCI-H23 = system: NCI-H23
SNB-19 = system: SNB-19
COLO 205 = system: COLO 205
SN12C = system: SN12C
786-0 = system: 786-0
SK-MEL-28 = system: SK-MEL-28
HCT-15 = system: HCT-15
CCRF-CEM = system: CCRF-CEM
KM12 = system: KM12
HOP-92 = system: HOP-92
SF-295 = system: SF-295
MCF7 = system: MCF7
HT-29 = system: HT-29
SK-OV-3 = system: SK-OV-3
EKVX = system: EKVX
CAKI-1 = system: CAKI-1
A498 = system: A498
OVCAR-3 = system: OVCAR-3
HOP-62 = system: HOP-62
SNB-75 = system: SNB-75
HCT-116 = system: HCT-116
IGROV-1 = system: IGROV-1
NCI-H522 = system: NCI-H522
SK-MEL-2 = system: SK-MEL-2
SK-MEL-5 = system: SK-MEL-5
T47D = system: T47D
UO-31 = system: UO-31
RPMI-8226 = system: RPMI-8226
Malme-3M = system: Malme-3M
K562 = system: K562
SR = system: SR

SMILES: O=c1c(NCc2ccccc2)c(C2(c3ccccc3F)SCCCS2)c1=O
- GI50 (ACHN): > 100 µM (inactive)
- GI50 (UACC-257): > 100 µM (inactive)
- GI50 (NCI-H226): > 100 µM (inactive)
- GI50 (MDA-MB-231): > 100 µM (inactive)
- GI50 (MDA-MB-435): 19.5 µM (inactive)
- GI50 (MDA-N): 41.9 µM (inactive)
- GI50 (SW-620): > 100 µM (inactive)
- GI50 (NCI-H460): > 100 µM (inactive)
- GI50 (Hs-578T): > 100 µM (inactive)
- GI50 (LOX IMVI): > 100 µM (inactive)
- GI50 (UACC-62): 79.1 µM (inactive)
- GI50 (M14): > 100 µM (inactive)
- GI50 (SF-268): > 100 µM (inactive)
- GI50 (MOLT-4): 54 µM (inactive)
- GI50 (NCI/ADR-RES): > 100 µM (inactive)
- GI50 (SF-539): > 100 µM (inactive)
- GI50 (DU-145): > 100 µM (inactive)
- GI50 (OVCAR-4): > 100 µM (inactive)
- GI50 (U-251): > 100 µM (inactive)
- GI50 (HL-60): 29.2 µM (inactive)
- GI50 (A549): > 100 µM (inactive)
- GI50 (RXF 393): > 100 µM (inactive)
- GI50 (BT-549): > 100 µM (inactive)
- GI50 (TK-10): > 100 µM (inactive)
- GI50 (OVCAR-5): > 100 µM (inactive)
- GI50 (PC-3): > 100 µM (inactive)
- GI50 (OVCAR-8): > 100 µM (inactive)
- GI50 (NCI-H23): > 100 µM (inactive)
- GI50 (SNB-19): > 100 µM (inactive)
- GI50 (COLO 205): > 100 µM (inactive)
- GI50 (SN12C): > 100 µM (inactive)
- GI50 (786-0): > 100 µM (inactive)
- GI50 (SK-MEL-28): > 100 µM (inactive)
- GI50 (HCT-15): > 100 µM
- GI50 (CCRF-CEM): > 100 µM (inactive)
- GI50 (KM12): 46.1 µM (inactive)
- GI50 (HOP-92): > 100 µM (inactive)
- GI50 (SF-295): > 100 µM (inactive)
- GI50 (MCF7): > 100 µM (inactive)
- GI50 (HT-29): > 100 µM (inactive)
- GI50 (SK-OV-3): > 100 µM (inactive)
- GI50 (EKVX): > 100 µM (inactive)
- GI50 (CAKI-1): > 100 µM (inactive)
- GI50 (A498): 82.8 µM (inactive)
- GI50 (OVCAR-3): > 100 µM (inactive)
- GI50 (HOP-62): > 100 µM (inactive)
- GI50 (SNB-75): > 100 µM (inactive)
- GI50 (HCT-116): > 100 µM (inactive)
- GI50 (IGROV-1): > 100 µM (inactive)
- GI50 (NCI-H522): 23.7 µM (inactive)
- GI50 (SK-MEL-2): > 100 µM (inactive)
- GI50 (SK-MEL-5): > 100 µM (inactive)
- GI50 (T47D): > 100 µM (inactive)
- GI50 (UO-31): > 100 µM (inactive)

SMILES: OCC1CCCCCCCCCCC12SCCCS2 (centres undefined)
- GI50 (ACHN): > 100 µM (inactive)
- GI50 (NCI-H226): > 100 µM (inactive)
- GI50 (MDA-MB-435): > 100 µM (inactive)
- GI50 (MDA-N): > 100 µM (inactive)
- GI50 (SW-620): > 100 µM (inactive)
- GI50 (NCI-H460): > 100 µM (inactive)
- GI50 (Hs-578T): > 100 µM (inactive)
- GI50 (LOX IMVI): > 100 µM (inactive)
- GI50 (UACC-62): > 100 µM (inactive)
- GI50 (M14): > 100 µM (inactive)
- GI50 (SF-268): > 100 µM (inactive)
- GI50 (MOLT-4): > 100 µM (inactive)
- GI50 (RPMI-8226): > 100 µM (inactive)
- GI50 (NCI/ADR-RES): > 100 µM (inactive)
- GI50 (DU-145): > 100 µM (inactive)
- GI50 (OVCAR-4): > 100 µM (inactive)
- GI50 (U-251): > 100 µM (inactive)
- GI50 (HL-60): > 100 µM (inactive)
- GI50 (A549): > 100 µM (inactive)
- GI50 (BT-549): > 100 µM (inactive)
- GI50 (TK-10): > 100 µM (inactive)
- GI50 (OVCAR-5): > 100 µM (inactive)
- GI50 (Malme-3M): > 100 µM (inactive)
- GI50 (PC-3): 71 µM (inactive)
- GI50 (NCI-H23): > 100 µM (inactive)
- GI50 (SNB-19): > 100 µM (inactive)
- GI50 (COLO 205): > 100 µM (inactive)
- GI50 (786-0): > 100 µM (inactive)
- GI50 (K562): 48.2 µM (inactive)
- GI50 (SK-MEL-28): > 100 µM (inactive)
- GI50 (HCT-15): > 100 µM
- GI50 (CCRF-CEM): > 100 µM (inactive)
- GI50 (KM12): > 100 µM (inactive)
- GI50 (HOP-92): > 100 µM (inactive)
- GI50 (MCF7): > 100 µM (inactive)
- GI50 (HT-29): > 100 µM (inactive)
- GI50 (SK-OV-3): > 100 µM (inactive)
- GI50 (EKVX): > 100 µM (inactive)
- GI50 (SR): > 100 µM (inactive)
- GI50 (CAKI-1): > 100 µM (inactive)
- GI50 (OVCAR-3): > 100 µM (inactive)
- GI50 (HOP-62): > 100 µM (inactive)
- GI50 (SNB-75): > 100 µM (inactive)
- GI50 (HCT-116): > 100 µM (inactive)
- GI50 (IGROV-1): > 100 µM (inactive)
- GI50 (NCI-H522): > 100 µM (inactive)
- GI50 (SK-MEL-2): > 100 µM (inactive)
- GI50 (SK-MEL-5): > 100 µM (inactive)
- GI50 (T47D): 84.3 µM (inactive)
- GI50 (UO-31): > 100 µM (inactive)
